Laboratory results as given in patent publication EP2177216A1, “Use of dianhydrohexite mononitrate derivatives as healing agents” (LACER, S.A., priority 2008, dated 2010).

Test system: full thickness wound (2 x 2 cm)
Test: Wound healing (wound contraction and re-epithelialization) after topical hydrogel application to a full thickness skin wound in rats
Type: in vivo, Male Wistar rats
Procedure: Male Wistar rats provided by Janvier, Espana weighing 150 - 200 g were housed in our animal facilities in groups of 3 animals, being each group in a conventional animal facility where the environmental temperature and relative humidity are monitored and controlled. The lighting schedule in the animal facility is 12 hours light and 12 hours dark. The rats were used after an acclimatization period of five days. After a week quarantine period animals were dosed.
The solutions were allowed to attain dissolution equilibrium for a period of 8 h. The appropriate amount of compound of formula (I) was added to the hydrogel solution for homogenization. […] The hydrogels were used immediately after preparation.
Rats were anesthetized with sodium pentobarbital (40 mg/kg, i.p.) before treatments application to keep the animal calm to allow absorption of the products.
The dorsal surface was shaved and a full thickness wound (2 x 2 cm) was made on the back of each rat by removing the skin (epidermis and dermis) and exposing paniculus carnosus.
Groups of 5 rats for treatment were used, and 0.5 g of hydrogel was topically applied in a wound (2 x 2 cm) on the back of each rat.
Treatments were applied from the first day until fourth day after wounding. […] From the fifth day post-wounding, lesions were left uncovered in all groups. The animals were housed in individual cages with free access to food and water. […]
The area of the wounds (cm^2) and % re-ephitelización were estimated by the difference between the total lesion area and the wound area still uncovered.
The efficacy of treatments was evaluated by measuring wound area and percentage of re-epithelialization vs total wound area.

[1] = day 5, 0.5 g of hydrogel topically applied from first until fourth day after wounding, groups of 5 rats
[2] = day 8, 0.5 g of hydrogel topically applied from first until fourth day after wounding, initial wound 2 x 2 cm
[3] = versus control hydrogel, from wound area at day 8

SMILES	% Re-epithelialization (day 5) [1] [%]	Wound area (cm^2) (day 8) [2]	% Wound reduction vs control [3] [%]	% Re-epithelialization (day 5) (rat, in vivo) [%]	% Wound reduction vs control (rat, in vivo) [%]	Wound area (cm^2) (day 8) (rat, in vivo)
CCC[S+]([O-])[C@H]1CO[C@H]2[C@@H]1OC[C@H]2O[N+](=O)[O-] (stereo partly drawn) [Compound 6, 2-[(R,S)-propylsulfinyl]isosorbide 5-mononitrate]	90	1.1	69	–	–	–
CC(=O)S[C@@H]1CO[C@H]2[C@@H]1OC[C@H]2O[N+](=O)[O-] [Compound 2, 2-acetylthioisomanide 5-mononitrate]	100	1.4	60	–	–	–
CC(=O)S[C@H]1CO[C@H]2[C@@H]1OC[C@H]2O[N+](=O)[O-] [Compound 1, 2-acetylthioisosorbide 5-mononitrate]	100	1.2	66	–	–	–
O=[N+]([O-])O[C@@H]1CO[C@H]2[C@@H]1OC[C@@H]2SS[C@H]1CO[C@H]2[C@@H]1OC[C@H]2O[N+](=O)[O-] [Compound 3, 5'5'-dinitrato-2,2'ditioisosorbide]	100	1.7	51	–	–	–
CS[C@H]1CO[C@H]2[C@@H]1OC[C@H]2O[N+](=O)[O-] [Compound 4, 2-Methylthioisosorbide 5-mononitrate]	100	1.1	69	–	–	–
O=[N+]([O-])O[C@@H]1CO[C@H]2[C@@H]1OC[C@@H]2O [Compound 7, Isosorbide 5-mononitrate, reference compound]	–	–	–	60	60	1.4
CS(=O)(=O)[C@H]1CO[C@H]2[C@@H]1OC[C@H]2O[N+](=O)[O-] [Compound 5, 2-Methylsulfonylisosorbide 5-mononitrate]	90	1.7	51	–	–	–
